Laboratory results from patent publication US7550588B2, “Homotropanes with central nervous system activity” (The Research Foundation of State University of New York, priority 2006, dated 2009).
Where two headings read alike, the source gives them in different places.

Tests used:
[1] = target: T1, Dopamine transporter (DAT) (Rattus norvegicus, UniProt P23977); assay: Displacement of [125I]RTI-55 binding at dopamine transport sites in rat striatum membranes; settings: for binding affinity at DAT (in words): summary of Table 1
T1 construct: striatum and frontal cortex dissected from frozen Sprague-Dawley rat brains (Pel-Freez, Rogers, Ark.); tissue Pel-Freez, Rogers, Ark; host or cells: rat striatum membranes (frozen Sprague-Dawley rat brains)
T1 sequence (P23977 whole entry): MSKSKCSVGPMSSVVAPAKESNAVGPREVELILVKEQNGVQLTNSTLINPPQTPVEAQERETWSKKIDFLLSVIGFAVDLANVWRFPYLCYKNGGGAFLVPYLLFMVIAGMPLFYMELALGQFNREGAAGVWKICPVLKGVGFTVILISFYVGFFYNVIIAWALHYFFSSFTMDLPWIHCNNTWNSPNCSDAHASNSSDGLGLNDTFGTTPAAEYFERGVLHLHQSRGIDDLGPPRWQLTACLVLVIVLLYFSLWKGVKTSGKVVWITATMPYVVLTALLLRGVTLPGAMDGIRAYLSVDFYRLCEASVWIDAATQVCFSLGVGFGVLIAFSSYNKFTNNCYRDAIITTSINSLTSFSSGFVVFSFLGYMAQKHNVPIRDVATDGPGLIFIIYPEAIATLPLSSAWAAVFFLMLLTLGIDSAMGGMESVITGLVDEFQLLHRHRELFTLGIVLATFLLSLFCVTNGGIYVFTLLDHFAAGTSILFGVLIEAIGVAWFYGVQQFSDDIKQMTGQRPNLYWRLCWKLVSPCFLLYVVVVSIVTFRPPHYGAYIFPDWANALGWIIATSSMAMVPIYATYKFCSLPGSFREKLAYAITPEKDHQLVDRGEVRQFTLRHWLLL

[2] = target: T2, serotonin transporter (SERT) (Rattus norvegicus, UniProt P31652); assay: Displacement of [3H]paroxetine binding at 5-HT transport sites in rat frontal cortex membranes; settings: for Ratio SERT/DAT: SERT binding value divided by DAT binding value; for binding affinity at SERT (in words): summary of Table 1
T2 construct: striatum and frontal cortex dissected from frozen Sprague-Dawley rat brains (Pel-Freez, Rogers, Ark.); tissue Pel-Freez, Rogers, Ark; host or cells: rat frontal cortex membranes (frozen Sprague-Dawley rat brains)
T2 sequence (P31652 whole entry): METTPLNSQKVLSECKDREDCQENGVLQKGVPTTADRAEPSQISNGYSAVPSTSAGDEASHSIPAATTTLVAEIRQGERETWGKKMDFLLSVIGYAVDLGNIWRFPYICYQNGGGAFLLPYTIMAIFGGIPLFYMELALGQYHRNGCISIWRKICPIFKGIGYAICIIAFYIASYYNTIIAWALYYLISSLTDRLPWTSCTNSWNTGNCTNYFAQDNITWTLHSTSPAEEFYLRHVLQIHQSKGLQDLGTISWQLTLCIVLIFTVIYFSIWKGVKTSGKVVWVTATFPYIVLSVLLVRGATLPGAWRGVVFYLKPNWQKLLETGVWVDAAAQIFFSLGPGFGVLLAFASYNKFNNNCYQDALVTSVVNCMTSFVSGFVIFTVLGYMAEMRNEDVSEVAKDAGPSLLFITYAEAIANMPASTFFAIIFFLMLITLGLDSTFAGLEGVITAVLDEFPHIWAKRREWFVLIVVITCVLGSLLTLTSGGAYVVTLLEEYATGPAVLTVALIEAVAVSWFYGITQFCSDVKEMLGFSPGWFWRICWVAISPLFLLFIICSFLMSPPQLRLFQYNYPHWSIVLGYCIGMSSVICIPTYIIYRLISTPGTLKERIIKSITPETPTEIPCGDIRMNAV

[3] = [125I]RTI-55 10 pM, rat striatum membranes, mean ± S.E.M., at least three experiments, tested as racemates, read-out: Binding (nM) DAT (converted)
[4] = [3H]paroxetine 0.4 nM, rat frontal cortex membranes, Cheng-Prusoff, mean ± S.E.M., tested as racemates, read-out: Binding (nM) SERT (converted)

| Compound | IC50 [1] | Ki [2] | Ratio SERT/DAT [2] | selectivity for SERT ([2]; SERT versus DAT binding) | IC50 [1, 3] | binding affinity at DAT (in words) [1] | Ki [2, 4] | binding affinity at SERT (in words) [2] | melting point |
| --- | --- | --- | --- | --- | --- | --- | --- | --- | --- |
| CCC(=O)[C@H]1[C@@H](c2ccc(C(C)C)cc2)C[C@@H]2CC[C@H]1N(C)C2 (racemic) [12c, 3β-(4-Isopropylphenyl)-6-methyl-4β-propionyl-6-azabicyclo[3.2.2]nonane] | 7500 nM | 1760 nM | 0.23 | – | – | – | – | – | – |
| C=C(C)c1ccc([C@H]2C[C@@H]3CC[C@H]([C@H]2C(=O)CC)N(C)C3)cc1 (racemic) [12f, 6-Methyl-4β-propionyl-3β-(4-isopropenylphenyl)-6-azabicyclo[3.2.2]nonane] | 880 nM | 32.8 nM | 0.03 | most selective for SERT | – | – | – | – | – |
| CCC(=O)[C@H]1[C@@H](c2ccc(C)cc2)[C@H](C)[C@@H]2CC[C@H]1N(C)C2 (racemic) [12g, 2α,6-Dimethyl-4β-propionyl-3β-(p-tolyl)-6-azabicyclo[3.2.2]nonane] | 1830 nM | > 2500 nM | – | – | – | – | – | – | – |
| C=C(C)c1ccc([C@@H]2C[C@@H]3CC[C@@H](NC3)[C@H]2C(=O)CC)cc1 (racemic) [18b, 4β-Propionyl-3α-(4-isopropenylphenyl)-6-azabicyclo[3.2.2]nonane] | – | – | 0.02 | – | 370 nM | relatively strong binding | 6.48 nM | relatively strong binding | – |
| CCC(=O)[C@@H]1C2CCC(C[C@@H]1c1ccc(C)cc1)CN2C (relative stereo) [12a, 6-Methyl-4β-propionyl-3β-(p-tolyl)-6-azabicyclo[3.2.2]nonane] | 117 ± 13 nM | 2230 ± 410 nM | 19 | – | – | – | – | – | – |
| CCC(=O)[C@@H]1C2CCC(C[C@@H]1c1ccc3ccccc3c1)CN2C (relative stereo) [12b, 6-Methyl-3β-(2-naphthyl)-4β-propionyl-6-azabicyclo[3.2.2]nonane] | 2.8 nM | 13.4 ± 0.0138 nM | 4.8 | – | – | strongest binding affinity | – | strongest binding affinity | – |
| CCC(=O)[C@@H]1C2CCC(C[C@H]1c1ccc(C)cc1)CN2C (relative stereo) [13a, 6-Methyl-4α-propionyl-3β-(p-tolyl)-6-azabicyclo[3.2.2]nonane] | – | – | – | – | 1160 ± 240 nM | very low binding affinity | > 2500 nM | very low binding affinity | – |
| CCC(=O)[C@@H]1C2CCC(C[C@H]1c1ccc3ccccc3c1)CN2C (relative stereo) [13b, 6-Methyl-3β-(2-naphthyl)-4α-propionyl-6-azabicyclo[3.2.2]nonane] | 20.8 nM | 6.2 nM | — 0.3 | – | – | – | – | – | – |
| CCC(=O)[C@@H]1C2CCC(CN2)C[C@H]1c1ccc(C)cc1 (relative stereo) [18a, 4β-Propionyl-3α-(p-tolyl)-6-azabicyclo[3.2.2]nonane] | 187 ± 55 nM | 469 ± 32 nM | 2.5 | – | – | relatively strong binding | – | relatively strong binding | – |
| CCC(=O)[C@@H]1C2CCC(CN2)C[C@@H]1c1ccc(C)cc1 (relative stereo) [compound 19, 4β-Propionyl-3β-(p-tolyl)-6-azabicyclo [3.2.2]nonane] | 24.9 ± 5.6 nM | 156 ± 26 nM | 6.3 | – | – | – | – | – | – |
| CCC(=O)C1C(c2ccc(Cl)cc2)CC2CCC1N(C)C2 (stereo not drawn) [12d, 3β-(4-Chlorophenyl)-6-methyl-4β-propionyl-6-azabicyclo[3.2.2]nonane] | 38.1 nM | 860 nM | 23 | – | – | – | – | – | – |
| C=Cc1ccc(C2CC3CCC(C2C(=O)CC)N(C)C3)cc1 (stereo not drawn) [12e, 3β-(4-Ethenylphenyl)-6-methyl-4β-propionyl-6-azabicyclo[3.2.2]nonane] | 75 nM | 116 nM | 1.9 | – | – | – | – | – | – |
| CCC(=O)C1C(c2ccc(C)cc2)C(c2ccccc2)C2CCC1N(C)C2 (stereo not drawn) [12h, 6-Methyl-2α-phenyl-4β-propionyl-3β-(p-tolyl)-6-azabicyclo[3.2.2]nonane] | 4100 nM | > 2500 nM | – | – | – | – | – | – | 172 to 173 °C |
| CCC(=O)C1C(c2ccc(C)cc2)C(C)C2(C)CCC1N(C)C2 (stereo not drawn) [12i, 1,2α,6-Trimethyl-4β-propionyl-3β-(p-tolyl)-6-azabicyclo[3.2.2]nonane] | 2140 nM | > 2500 nM | – | – | – | – | – | – | – |
| CCC(=O)C1C(c2ccc(C)cc2)C(c2ccccc2)C2(C)CCC1N(C)C2 (stereo not drawn) [12j, 1,6-Dimethyl-2α-phenyl-4β-propionyl-3β-(p-tolyl)-6-azabicyclo[3.2.2]-nonane] | 5600 nM | > 2500 nM | – | – | – | – | – | – | 141 to 144 °C |
| CCC(=O)C1C2CCC(CC1c1ccc(C)cc1)N(C)C2 (stereo not drawn) [compound 23, 6-Methyl-2α-propionyl-3β-(p-tolyl)-6-azabicyclo[3.2.2]nonane] | – | – | – | – | 4700 ± 900 nM | very low binding affinity | – | – | – |
| CCC(=O)C1C(c2ccc(C)cc2)CC2CCC1N(C)C2=O (stereo not drawn) [compound 27, 6-Methyl-4β-propionyl-3β-(p-tolyl)-6-azabicyclo[3.2.2]nonan-7-one] | – | – | – | – | 7000 nM | very low binding affinity | > 2500 nM | very low binding affinity | – |
